Data reported in patent US5358936A, “Anionic furanose derivatives, methods of making and using the same” (Gordon; Paul, priority 1991, dated 1994).
“Also recorded” adds a separate entry of the source. Structures can show the parent of a compound that is named as a salt.

Tests used:
rat paw = experiment: Post-ischemic reperfusion paw swelling (Example 22); type: in vivo, Sprague Dawley male rats; details: for % Change as a result of treatment / Paw swelling, Mean ± SE: another study; for Paw swelling, Mean ± SE: i.p. 45 minutes prior
Description: This important disease model is used to evaluate aspects of tissue injury that occur in heart attack, or myocardial infarction, and stroke. Under these conditions, a significant period of injury can occur after blood flow has been restored, during the period of reperfusion.
To produce ischemia, blood flow to the left hind foot was largely interrupted by application of a tourniquet made up of two size 18 rubber bands wound eight times around the leg just behind the heel. […] Both application and removal of tourniquet were carried out under ether anesthesia. Injury was equated with organ swelling, which was assayed by measurement of the dorsoventral foot diameter with a Schnelltaster caliper, just before application of the tourniquet and at various times following tourniquet removal, during the reperfusion period.
Rats employed were Sprague Dawley males, weighing 240-280 grams. Drug comparisons were made here employing measurements 30 minutes into the reperfusion period. The widely studied drug allopurinol, a xanthine oxidase inhibitor and a free radical scavenging agent, used in the treatment of gout, and widely used to suppress experimental post-ischemic reperfusion injury was used as an experimental treatment standard. In studies below, allopurinol and all new drugs were given intraperitoneally 45-60 minutes prior to application of the tourniquet. Data are reported as the mean swelling (Mn)±standard error (SE). […] Group n is 5 or 6.
In another study, drug comparisons were made at various times after the reperfusion period. In this study, control and drug treatment groups were as above.

[1] = tested on: gastric submucosal thrombi; experiment: Inhibition of gastric submucosal thrombi (Example 30); type: in vivo, rat; details: 10 mg/kg IV
Protocol: Thrombosis was induced in rat stomach submucosal blood vessels by the following two-step treatment. First, 1.5 ml of 100 percent ethanol was administered by oral gavage. This produces non-specific injury to tissues and blood vessels of the gastric mucosa. Second, 1.0 mg of adenosine diphosphate (ADP) in 1.0 ml of H2 O, was administered by oral garage 15 minutes after the administration of ethanol. Administration of ADP biases the organ response towards thrombosis by inducing platelet aggregation.
The pathology generated is typically a disseminated pattern of multiple small thrombi, observed on examination of the gastric mucosa, 1-3 hours after ethanol administration. These thrombi are dark red, dilated, thrombosed submucosal blood vessel segments, each being approximately 1 mm thick and 2 to 6 mm long.
In these studies, animals were treated with drug or centrol at one hour prior to ethanol administration. Thrombosis was induced as discussed before, and animals were sacrificed at 1.5 hours after ethanol administration. Focal thrombi were then counted. In this study, n=9-10.

platelet aggregation = experiment: Mouse tail bleeding time (Example 31 B); type: in vivo
Protocol: A study of mouse tail bleeding time, which is an in vivo model of platelet aggregation and thrombosis was also conducted. In this widely employed model, bleeding was induced by a standardized transection of the tail tip and subsequent bleeding time was determined after vertical immersion of the tails in isotonic saline at 37° C. for thirty seconds.
Two compounds of the invention, Compound III and Compound VIII, were assessed as compared with aspirin, in another study of mouse tail bleeding time. In this study, the mice were housed in a standard animal room rather than in a noisy small animal isolator. Also, all three drugs were administered by an intraperitoneal route, rather than a subcutaneous route for Compound III and an intraperitoneal route for aspirin.

peritoneal neutrophils = experiment: In vitro neutrophil chemotaxis toward zymosan-activated rat serum (Example 24); type: cell-based, mouse; details: Mus musculus, Neutrophil
Protocol: In vitro neutrophil chemotaxis studies were carried out by standard methods, as follows:
Mice were injected with complete Freund's adjuvant (CFA) and peritoneal cells, principally neutrophjls (>90 percent), were reproved from the mice 24 hours thereafter. Blind-well chemotactic chambers (Nucleopore Corp., Pleasanton, Calif.) were utilized.
Medium (RPMI 1640 plus 10 percent fetal calf serum) or medium plus 20 percent zymosan-activated rat serum (ZAS) was added to the lower compartment of each chamber. A nucleopore filter (8 μm pore size) was placed between compartments and 1×10^5 peritoneal neutrophils (above) suspended in medium were placed in the upper compartment. Chambers were incubated for six hours, after which time the filters were removed and stained with Giemsa stain. The number of cells on the lower surface of the filter was counted under a microscope. Treatment groups were assayed in duplicate.
The studies were carried out more specifically as follows:
Zymosan (Sigma Chemical Co., St. Louis, Mo.) was mixed with rat serum for one hour at 37° C. at 1 milligram (mg)/ml. The resulting chemoattractant composition was filtered, aliquotted and stored frozen at -70° C. prior to use.
The above chemoattractant composition was used as a 20 percent v/v solution in medium.
The chemotaxis chambers were arranged as follows:
The chambers were incubated at 37° C. for six hours, after which the chambers were dismantled, and the filters removed and treated as follows:
a) The filters were immersed in Giemsa stain diluted 1:50 for 30-45 minutes.
b) The stained filters were rinsed gently in distilled water for 3-5 minutes.
c) The stained, rinsed filters were air dried without blotting.
Several compounds described herein and control compounds ("drug", above) were examined at various concentrations, in duplicate. The molar concentration of a drug that inhibited the observed chemotaxis by 50 percent, defined as the ID50 value, was determined as shown below.

foot pad = experiment: Inflammation provoked by carrageenan injection (Example 25); type: in vivo, mice; details: subcutaneous; ibuprofen 50 mg/kg, Compound III 30 mg/kg; not significant
[2] = tested on: inflammation in experimental allergic encephalomyelitis; details: Willenborg et al. (1989); cited from earlier work

Structure (SMILES): CC1(C)O[C@H]2O[C@H]([C@@H](COS(=O)(=O)O)OS(=O)(=O)O)[C@@H](OS(=O)(=O)O)[C@H]2O1 [Compound VIII, 1,2-O-(2-Propylidene)-3,5,6-tri-O-sulfo-α-D-allofuranose, tripotassium salt]
- paw swelling less than control (rat paw; 60 minutes of reperfusion time, i.p.): 71%
- % Change as a result of treatment (rat paw; reperfusion time 20 mins., i.p.): -46%
- Paw swelling, Mean ± SE (rat paw; reperfusion time 20 mins., control 8.20 ± 1.02): 4.60 ± 0.40 0.1 mm
- % Change as a result of treatment (rat paw; reperfusion time 30 mins., i.p.): -64%
- Paw swelling, Mean ± SE (rat paw; reperfusion time 30 mins., control 6.60 ± 0.87): 2.40 ± 0.51 0.1 mm
- Drug Effect on thrombi [1]: -38.1%
- Mean Thrombi per Stomach, ±SE ([1]; ethanol + ADP, control 10.60 ± 1.42): 6.56 ± 1.60 per Stomach
- % Increase in bleeding time (platelet aggregation; 100 mg/kg intraperitoneal): 278%
- Mouse Tail Bleeding Time (platelet aggregation; 100 mg/kg intraperitoneal, control 37.0 ± 5.25): 139.88 ± 28.23 s
- potency relative to aspirin in prolonging mouse tail bleeding time / suppressing platelet aggregation (platelet aggregation; first study: aspirin 75 mg/kg IP, Compound III s.c. or oral, second study: all IP 100 mg/kg, tripotassium salt): more effective than aspirin; also recorded: more potent than aspirin in the suppression of platelet aggregation

Structure (SMILES): CC(C)Cc1ccc(C(C)C(=O)O)cc1 (stereo not drawn) [Ibuprofen, reference compound]
- IC50 (peritoneal neutrophils; 6 h, 20 percent zymosan-activated rat serum, six hours, 37° C., read-out: ID50 (molar concentration that inhibited chemotaxis by 50 percent)): > 50 µM
- inhibition at 0.1 µg/mL (peritoneal neutrophils; dose 0.1 μg/ml, read-out: Percent Inhibition of chemotaxis): 17.5%
- inhibition at 1 µg/mL (peritoneal neutrophils; dose 1.0 μg/ml, read-out: Percent Inhibition of chemotaxis): 9.3%
- inhibition at 10 µg/mL (peritoneal neutrophils; dose 10.0 μg/ml, read-out: Percent Inhibition of chemotaxis): 35.5%
- reduction in swelling (foot pad): 24%

Structure (SMILES): O=P(O)(O)OC[C@H]1O[C@H](OP(=O)(O)O)[C@@H](O)[C@@H](O)[C@@H]1O [Mannose-1,6-diphosphate]
- effect on inflammation in EAE, in words [2]: less effective than mannose-6-phosphate

Structure (SMILES): O=P(O)(O)OC[C@H]1OC(O)[C@@H](O)[C@@H](O)[C@@H]1O (stereo partly drawn) [Mannose-6-phosphate]
- effect on inflammation in EAE, in words [2]: useful in treating inflammation

Structure (SMILES): O=P(O)(O)OC[C@H]1OC(O)(COP(=O)(O)O)[C@@H](O)[C@@H]1O (stereo partly drawn) [fructose-1,6-diphosphate]
- effect on inflammation in EAE, in words [2]: less effective than mannose-6-phosphate
